# Laboratory results reported in patent US9029405B2, “5-(biphenyl-4-yl)-3-phenyl-1,2,4-oxadiazolyl derivatives as ligands on the sphingosine 1-phosphate(SIP)receptors” (Merck Serono S.A., priority 2010, dated 2015).
# Where a name gives a salt, the structure may show the parent alone. Read-outs that look alike come from different tables or passages of the source.
# What was measured:
# S1P1 [1] = biological target: T1, S1P1 (Homo sapiens, UniProt P21453); experiment: Receptor binding assay, [33P]sphingosine 1-phosphate competition, membranes of CHO cells expressing S1P1
# Experimental: (§1) Membranes were prepared from CHO cells expressing S1P1 or S1P3 for use in ligand binding studies. Cells were suspended in 50 mM TRIS, pH 7.4, 2 mM EDTA, 250 mM Sucrose (buffer A) and 1× Complete protease inhibitor cocktail (Roche), and disrupted at 4° C. by N2 decompression using a cell disruption bomb (Parr Instrument). Following centrifugation at 1000 RPM for 10 min at 4° C., the supernatant was diluted (2×) in buffer A and centrifuged again at 19000 RPM for 75 min at 4° C. The pellet was then suspended in 10 mM HEPES, pH 7.4, 1 mM EDTA, 250 mM Sucrose (Buffer B), and 1× Complete EDTA-free protease inhibitor cocktail and homogenized using a potter. Membranes were flash frozen in liquid N2 and stored at −80° C.
# (§2) [33P]sphingosine 1-phosphate (3000 Ci/mmol; American Radiolabeled Chemicals, Inc.) was added to test compounds in 20% DMSO by competition. Membranes and WGA SPA beads (GE Healthcare) were added to give a final volume of 100 μl in 96-well plates or 50 μl in 384-well plates with assay concentrations of 30 pM or 15 pM [33P]sphingosine 1-phosphate (respectively for S1P1 or S1P3), 50 mM HEPES, pH 7.5, 5 mM MgCl2, 100 mM NaCl, 0.4% fatty acid-free BSA, 1-5 μg/well of proteins in 96-well plates vs 0.6-1 μg/well of proteins in 384-well plates and 100 μg/well of WGA SPA beads in 96-well plates vs 75 μg/well of WGA SPA beads in 384-well plates. Binding was performed for 60 min at RT on a shaker and bound radioactivity was measured on a PerkinElmer 1450 MicroBeta counter. Triplicate samples were averaged and normalized as percentage of inhibition relative to total binding (only DMSO in well) and non specific binding (1000-fold excess of unlabeled S1P). Binding data were analyzed using the GraphPad Prism program or Genedata software.
# (§3) The “potency” or the “activity” of the compounds is determined by the Ki values as evaluated in one of the above described binding assay, 96 or 384 well plates.
# Target sequence in this assay (P21453 whole entry, species assumed): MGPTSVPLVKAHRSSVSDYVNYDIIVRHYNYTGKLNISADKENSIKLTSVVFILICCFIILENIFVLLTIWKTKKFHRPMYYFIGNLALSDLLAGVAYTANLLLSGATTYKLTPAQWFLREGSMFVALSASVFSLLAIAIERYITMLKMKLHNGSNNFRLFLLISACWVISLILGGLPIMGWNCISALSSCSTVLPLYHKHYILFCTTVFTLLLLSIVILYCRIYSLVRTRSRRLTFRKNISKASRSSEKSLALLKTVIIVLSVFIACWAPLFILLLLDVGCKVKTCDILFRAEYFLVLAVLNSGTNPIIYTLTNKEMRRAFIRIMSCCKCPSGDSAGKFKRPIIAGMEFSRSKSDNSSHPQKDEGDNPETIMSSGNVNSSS
# S1P3 = S1P3 (Homo sapiens, UniProt Q99500); experiment: Receptor binding assay, [33P]sphingosine 1-phosphate competition, membranes of CHO cells expressing S1P3
# Experimental: as §1, §2, §3
# S1P1 [2] = biological target: T1, S1P1; experiment: S1P1 internalization assay in S1P1-U2OS cells (cell imaging); assay type: cell-based; design: host or cells: U2OS (human bone osteosarcoma epithelial cells); conditions: U2OS cells expressing S1P1-EGFP, 384-well format
# Experimental: Cellular Functional Assays: Internalization of Sphinqosine-1-phosphate Receptor 1 (S1P1) in a Human Cell Line (U2OS) in a 384-Well Format Using a Cell Imaging Analysis.
# The S1P1 internalization assay was performed in 384 well plates (Corning 384 black with clear bottom 3712) using S1P1-U2OS cells from BioImage (C039A), a human epithelial cell line (Human Bone Osteosarcoma Epithelial Cells). These cells expressed the human S1P1 Receptor fused to the green fluorescent protein (EGFP). A standard CMV promoter (cytomegalovirus promoter) controls the expression of S1P1-EGFP and continuous expression was maintained by addition of geneticin to the culture medium.
# S1P1 Receptor desensitization induced the internalization of the membrane-localized S1P-EGFP fusion protein to endosomes, which can be monitored by cell imaging analysis.
# The cells are plated in low serum medium (Dulbecco's Modified Eagle Medium (DMEM) with Glutamax-1 and high glucose, 1% Penicillin/Streptomycin, 1% Fetal Calf Serum (FCS), 0.5 mg/ml Geneticin) overnight.
# The next day, S1P1-U2OS cells are incubated in 20 μl serum free medium (DMEM with Glutamax-1 and high glucose, 0.1% of fatty-acid free Bovin Serum Albumin (BSA), 10 mM, N′-2-Hydroxyethylpiperazine-N′-2 ethanesulphonic acid (HEPES) 1M) for 2 hours at 37° C./5% CO2. The cells are then treated with 4 μl compounds/agonists (6×/3% DMSO) for a total volume of 24 μl, and plates are incubated for 1 hour at 37° C./5% CO2.
# S1P1-U2OS cells are fixed with 25 μl Paraformaldehyde 8% and stained with Hoechst 33345 dye (1:1000) for 20 minutes.
# They were then washed 3 times with Phosphate Buffered Saline (PBS) and plates are sealed. The internalization of the receptor S1P1-EGFP is measured on Cellomics by calculating the “spot count per object” (“object” corresponds to nuclear and “spot” corresponds to S1P1-EGFP receptor). Internalization data were observed thanks to vHCS View and analyzed using Genedata® software.
# Target sequence in this assay (P21453 whole entry): as the sequence (P21453 whole entry, species assumed) above
# [3] = 384 well plate, read-out: S1P1 Binding Ki [M] (384 well plate)
# [4] = 384 well plate, read-out: S1P3 Binding Ki [M] (384 well plate)
# [5] = 96 well plate, read-out: S1P3 Binding Ki [M] (96 well plate)
# [6] = 96 well plate, read-out: S1P1 Binding Ki [M] (96 well plate)
# Sequence of S1P3 (Q99500 whole entry, species assumed): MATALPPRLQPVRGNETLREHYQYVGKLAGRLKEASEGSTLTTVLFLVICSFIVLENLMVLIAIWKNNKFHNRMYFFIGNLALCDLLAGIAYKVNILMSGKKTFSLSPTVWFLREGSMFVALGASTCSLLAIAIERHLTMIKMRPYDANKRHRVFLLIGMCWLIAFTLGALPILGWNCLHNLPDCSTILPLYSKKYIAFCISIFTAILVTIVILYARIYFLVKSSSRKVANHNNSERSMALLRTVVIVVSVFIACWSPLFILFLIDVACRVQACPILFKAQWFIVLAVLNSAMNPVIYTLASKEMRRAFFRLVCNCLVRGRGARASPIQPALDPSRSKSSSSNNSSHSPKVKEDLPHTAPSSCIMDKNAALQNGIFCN
Ki (S1P1 [1]; [3]),Ki (S1P3; [4]),EC50 (S1P1 [2]),Ki (S1P3; [5]),Ki (S1P1 [1]; [6]),Structure (SMILES)
5.2e-09 M,4.07e-06 M,49.1 nM,–,–,"CC[C@@H](C(=O)O)N(C)Cc1ccc(-c2noc(-c3ccc(-c4ccccc4C)c(C(F)(F)F)c3)n2)cc1 [Example 69, (2S)-2-(methyl(4-(5-(2′-methyl-2-(trifluoromethyl)biphenyl-4-yl)-1,2,4-oxadiazol-3-yl)benzyl)amino)butanoic acid]"
2e-09 M,7.7e-07 M,5.66 nM,7.01e-07 M,–,Cc1ccccc1-c1ccc(-c2nc(-c3ccc(CN(C)[C@H](C)C(=O)O)cc3)no2)cc1C(F)(F)F [Example 71]
8.12e-09 M,7.36e-06 M,34.5 nM,–,–,"Cc1ccccc1-c1ccc(-c2nc(-c3ccc(CCN[C@H](C(=O)O)C(C)C)cc3)no2)cc1C(F)(F)F [Example 91, (2S)-3-methyl-2-(4-(5-(2′-methyl-2-(trifluoromethyl)biphenyl-4-yl)-1,2,4-oxadiazol-3-yl)phenethylamino)butanoic acid]"
9.18e-10 M,8.63e-07 M,2 nM,2.2e-06 M,1.45e-10 M,"COCc1cc(-c2nc(-c3ccc([C@@H](C)N[C@H](C)C(=O)O)cc3)no2)ccc1-c1ccccc1C [Example 4, N-[(1R)-1-(4-{5-[2-(methoxymethyl)-2′-methylbiphenyl-4-yl]-1,2,4-oxadiazol-3-yl}phenyl)ethyl]-D-alanine, hydrochloride salt]"
3.81e-09 M,–,73.3 nM,–,–,CCCC(NCc1ccc(-c2noc(-c3ccc(-c4ccccc4C)c(C(F)(F)F)c3)n2)cc1)C(=O)O (stereo not shown) [Example 62]
7.52e-09 M,–,29.8 nM,–,–,"COCC(c1ccc(-c2noc(-c3ccc(-c4ccccc4C)c(C(F)(F)F)c3)n2)cc1)N(C)CC(=O)O (stereo not shown) [Example 51, 2-((2-methoxy-1-(4-(5-(2′-methyl-2-(trifluoromethyl)biphenyl-4-yl)-1,2,4-oxadiazol-3-yl)phenyl)ethyl)(methyl)amino)acetic acid]"

# Continued, compound first:
Structure (SMILES),Ki (S1P1 [1]; [3]),Ki (S1P3; [4]),EC50 (S1P1 [2]),Ki (S1P3; [5]),Ki (S1P1 [1]; [6])
Cc1ccccc1-c1ccc(-c2nc(-c3ccc(CN(C)C(C)(C)C(=O)O)cc3)no2)cc1C(F)(F)F [Example 56],4.13e-09 M,8.54e-06 M,57.8 nM,–,–
"Cc1ccccc1-c1ccc(-c2nc(-c3ccc(CN(C)[C@@H](CO)C(=O)O)c(F)c3)no2)cc1C(F)(F)F [Example 45, N-(2-fluoro-4-{5-[2′-methyl-2-(trifluoromethyl)biphenyl-4-yl]-1,2,4-oxadiazol-3-yl}benzyl)-N-methylserine, hydrochloride salt]",2.68e-09 M,4.36e-07 M,30.8 nM,–,–
Cc1ccccc1-c1ccc(-c2nc(-c3ccc(CN[C@H](C(=O)O)[C@@H](C)O)cc3)no2)cc1C(F)(F)F [Example 61],4.27e-09 M,1.15e-06 M,23.3 nM,–,–
Cc1ccccc1-c1ccc(-c2nc(-c3ccc(CN[C@@H](CCO)C(=O)O)cc3)no2)cc1C(F)(F)F [Example 60],3.46e-09 M,1.03e-06 M,24.2 nM,–,–
"Cc1cc(-c2nc(-c3ccc([C@H](C)N[C@H](C)C(=O)O)cc3)no2)ccc1-c1ccccc1C(F)(F)F (racemic) [Example 25, N-[(1S)-1-(4-{5-[2-methyl-2′-(trifluoromethyl)biphenyl-4-yl]-1,2,4-oxadiazol-3-yl}phenyl)ethyl]-D-alanine and N-[(1R)-1-(4-{5-[2-methyl-2′-(trifluoromethyl)biphenyl-4-yl]-1,2,4-oxadiazol-3-yl}phenyl)ethyl]-L-alanine]",2.59e-09 M,> 2e-05 M,28.1 nM,–,–
"Cc1ccccc1-c1ccc(-c2nc(-c3cc(F)cc(CNC(C)(C)C(=O)O)c3)no2)cc1C(F)(F)F [Example 46, N-(3-fluoro-5-{5-[2′-methyl-2-(trifluoromethyl)biphenyl-4-yl]-1,2,4-oxadiazol-3-yl}benzyl)-2-methylalanine, hydrochloride salt]",7.94e-10 M,9.55e-08 M,9.34 nM,–,–
Cc1ccccc1-c1ccc(-c2nc(-c3cccc(CCN[C@H](C)C(=O)O)c3)no2)cc1C(F)(F)F [Example 95],8.46e-10 M,1.12e-07 M,4.25 nM,–,2.15e-10 M
"COCc1cc(-c2nc(-c3ccc(C(C)N(C)CC(=O)O)cc3)no2)ccc1-c1ccccc1C (stereo not shown) [Example 15, N-[1-(4-{5-[2-(methoxymethyl)-2′-methylbiphenyl-4-yl]-1,2,4-oxadiazol-3-yl}phenyl)ethyl]-N-methylglycine, hydrochloride salt]",1.98e-09 M,5.68e-07 M,89.3 nM,–,–
"Cc1ccccc1-c1ccc(-c2nc(-c3ccc(CN(C)[C@@H](C)C(=O)O)c(F)c3)no2)cc1C(F)(F)F [Example 50, N-(2-fluoro-4-{5-[2′-methyl-2-(trifluoromethyl)biphenyl-4-yl]-1,2,4-oxadiazol-3-yl}benzyl)-N-methylalanine, hydrochloride salt]",3.02e-09 M,6.61e-07 M,25.8 nM,–,–
Cc1ccccc1-c1ccc(-c2nc(-c3cccc(CNC4(C(=O)O)CCC4)c3)no2)cc1C(F)(F)F [Example 80],3.18e-10 M,3.51e-08 M,1.22 nM,–,–
"CCC(C(=O)O)N(C)Cc1ccc(-c2noc(-c3ccc(-c4ccccc4C)c(C(F)(F)F)c3)n2)cc1F (stereo not shown) [Example 1, 2-[(2-fluoro-4-{5-[2′-methyl-2-(trifluoromethyl)biphenyl-4-yl]-1,2,4-oxadiazol-3-yl}benzyl)(methyl)amino]butanoic acid, hydrochloride salt]",2.81e-09 M,1.77e-06 M,43.3 nM,–,–
"CC[C@H](N[C@H](C)c1ccc(-c2noc(-c3ccc(-c4ccccc4C)c(C(F)(F)F)c3)n2)cc1)C(=O)O [Example 10, (2S)-2-{[(1R)-1-(4-{5-[2′-methyl-2-(trifluoromethyl)biphenyl-4-yl]-1,2,4-oxadiazol-3-yl}phenyl)ethyl]amino}butanoic acid, hydrochloride salt]",1.94e-08 M,–,187 nM,–,–
"Cc1cc(-c2nc(-c3ccc([C@@H](C)N(C)CC(=O)O)cc3)no2)ccc1-c1ccccc1C(F)(F)F [Example 35, N-methyl-N-[(1R)-1-(4-{5-[2-methyl-2′-(trifluoromethyl)biphenyl-4-yl]-1,2,4-oxadiazol-3-yl}phenyl)ethyl]glycine, hydrochloride salt]",6.14e-09 M,–,211 nM,–,–
"Cc1ccccc1-c1ccc(-c2nc(-c3cccc(CN(C)C(C)(C)C(=O)O)c3)no2)cc1C(F)(F)F [Example 83, 2-Methyl-2-(methyl-{3-[5-(2′-methyl-2-trifluoromethyl-biphenyl-4-yl)-[1,2,4]oxadiazol-3-yl]-benzyl}-amino)-propionic acid]",3.56e-09 M,–,75.5 nM,–,–
"COCC(NCc1cccc(-c2noc(-c3ccc(-c4ccccc4C)c(C(F)(F)F)c3)n2)c1)C(=O)O (stereo not shown) [Example 76, 3-Methoxy-2-{3-[5-(2′-methyl-2-trifluoromethyl-biphenyl-4-yl)-[1,2,4]oxadiazol-3-yl]-benzylamino}-propionic acid]",1.5e-08 M,–,133 nM,–,–
